Like-named read-outs stand apart in the source and are kept apart here.
What was measured:
[1] = tested on: A549 cancer cells; test: MTT antiproliferative assay, A549; assay type: cell-based, human; settings: MTT assay after 48 h
Text: (§1) An A549 (human non-small cell lung cancer cell line) cell line was purchased from the Shanghai Cell Bank of the Chinese Academy of Sciences; PC-3 (human prostate cancer cell line) cell line was donated by the Key Laboratory of Natural Product Chemistry of the Chinese Academy of Sciences of Guizhou Province; HepG2 (human liver cancer cell line) and NRK 52E (normal rat kidney cell line) cell line was donated by Guizhou Medical University; all cell lines were kept by the laboratory.
(§2) The antiproliferative activity of target compounds against A549, PC-3, HepG2, and NRK-52E were determined by MTT assay, as described in previous articles. The assay was recorded at 490 nm by an Infinite® M200 PRO multimode microplate (Tecan, Männedorf, Switzerland).

[2] = tested on: HepG2 cancer cells; test: MTT antiproliferative assay, HepG2; assay type: cell-based, human; settings: read-out: IC50 HepG2
Text: as §1, §2

[3] = tested on: PC-3 cancer cells; test: MTT antiproliferative assay, PC-3; assay type: cell-based, human; settings: MTT assay after 48 h
Text: as §1, §2

[4] = tested on: NRK-52E cells; test: MTT cytotoxicity assay, normal NRK-52E cells; assay type: cell-based; settings: MTT assay after 48 h, normal rat kidney cell line
Text: as §1, §2

[5] = tested on: A549 cells; test: Scratch test (cell migration); assay type: cell-based, human
Method: According to the previous methods, A549 cells of the logarithmic growth stage were cultured in 6-well plates with two lines on the back, with each well containing a density of 1 × 10^6 cells/mL. After the cells adhered to the wall, three uniform thin lines were drawn in each well by a sterile pipette tip. Afterward, the medium containing 1% fetal bovine serum (FBS) and various concentrations of compounds were added in wells. After the different time of incubation, the cells were performed by an inverted fluorescence microscope. Then the scratch healing rate was calculated: Migration distance (n h) = edge distance (0 h) − edge distance (12 h or 24 h).

[6] = tested on: HepG2 cells; test: Hoechst apoptosis experiment; assay type: cell-based, human; settings: HepG2, 6 μM, 24 h
Method: In this assay, HepG2 cells were seeded in 6-well plates, after 24 h of incubation, different compounds were added at various concentrations, and cells were incubated again for 24 h. Afterward, the medium was removed and cells were washed twice with phosphate-buffered saline (PBS, 10 mM, pH 7.3), and fixed with 4% paraformaldehyde for 15 min at room temperature, then stained with […] Hoechst 33258 in PBS for 20 min at 37 °C in the dark. After incubation, the cells were incubated with an anti-fluorescent attenuator and imaged with an inverted fluorescence microscope.

[7] = tested on: tubulin; test: Tubulin polymerization via TEM; assay type: biochemical; settings: 20 μM + 4 mg/mL tubulin
Method: Briefly, according to the protocol of tubulin polymerization assay, the 100 μL centrifuge tubes were pre-warmed at 37 °C, and the reaction assay contained 20 μL 4 mg/mL tubulin in G-PEM buffer. Then, 2 μL (10×) compounds solution was added. Finally, the assay was carried out at 37 °C for 30 min. The formed microtubules were transferred to Formvar-caron-coated copper grids, negatively stained with 1% phosphotungstic acid, and visualized under a transmission electron microscope.

[8] = tested on: cellular microtubule network of HepG2 cells; test: Immunofluorescence staining of tubulin; assay type: cell-based, human; settings: 3 and 6 μM, 24 h
Method: According to the previous methods, compound solutions of various concentrations were added to a 6-well plate in which HepG2 cells had been seeded for 12 h. After incubation for 24 h and washed with phosphate-buffered saline (PBS, 10 mM, pH 7.3), each well was treated with 4% formaldehyde solution for 15 min and washed with 0.1% Triton X-100 of phosphate-buffered saline (PBS, 10 mM, pH 7.3). After that, the fixed cells were incubated with diluted tubulin-tracker red for 40 min in a dark environment, followed by washing three times by 0.1% Triton X-100 of phosphate-buffered saline (PBS, 10 mM, pH 7.3). Finally, each well was added DAPI (2 μg/mL). Finally, the results were observed using a Nikon ECLIPSE Ti-S fluorescent microscope (Nikon Co, Tokyo, Japan).

[9] = biological target: T1, tubulin (Sus scrofa, UniProt P02554); test: Tubulin polymerization assay in vitro; assay type: biochemical; settings: 10 μM and 20 μM; 4 mg/mL tubulin, 37 °C, 340 nm
T1 construct: purchased Cytoskeleton, Inc. BK004P
T1 sequence (P02554 whole entry): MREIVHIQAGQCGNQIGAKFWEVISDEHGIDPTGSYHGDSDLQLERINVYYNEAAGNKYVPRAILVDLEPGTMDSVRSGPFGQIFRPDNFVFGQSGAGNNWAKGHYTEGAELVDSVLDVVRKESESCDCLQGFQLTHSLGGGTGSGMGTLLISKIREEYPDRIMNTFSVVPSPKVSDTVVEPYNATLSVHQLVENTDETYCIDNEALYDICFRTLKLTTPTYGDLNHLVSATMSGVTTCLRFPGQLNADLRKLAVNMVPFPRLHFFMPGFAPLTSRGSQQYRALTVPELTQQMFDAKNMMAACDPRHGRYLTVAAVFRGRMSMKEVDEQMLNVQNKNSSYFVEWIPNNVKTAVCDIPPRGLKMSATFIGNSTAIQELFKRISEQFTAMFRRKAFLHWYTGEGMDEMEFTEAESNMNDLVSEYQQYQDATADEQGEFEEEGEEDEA
T1 sequence (P02550 whole entry partner): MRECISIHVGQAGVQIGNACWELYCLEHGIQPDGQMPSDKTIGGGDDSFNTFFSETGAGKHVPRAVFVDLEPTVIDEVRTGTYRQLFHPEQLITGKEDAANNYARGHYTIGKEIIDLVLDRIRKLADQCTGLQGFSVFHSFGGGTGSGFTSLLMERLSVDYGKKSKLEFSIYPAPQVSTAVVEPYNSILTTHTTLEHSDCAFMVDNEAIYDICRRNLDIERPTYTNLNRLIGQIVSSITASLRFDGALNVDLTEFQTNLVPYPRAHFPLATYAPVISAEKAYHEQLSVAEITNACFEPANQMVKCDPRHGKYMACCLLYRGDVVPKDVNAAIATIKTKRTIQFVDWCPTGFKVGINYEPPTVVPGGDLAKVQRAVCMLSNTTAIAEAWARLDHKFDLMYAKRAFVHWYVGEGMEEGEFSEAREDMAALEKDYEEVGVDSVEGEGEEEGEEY
Method: The tubulin polymerization assay in vitro was determined by HTS-Tubulin Polymerization Assay Kit (#BK004P, Cytoskeleton, Inc., Denver, CO, USA) as described in previous articles. The plate was pre-warmed at 37 °C, and the reaction assay contained 100 μL 4 mg/mL tubulin in G-PEM buffer. Then, 10 μL (10×) compounds solution or 100 μM paclitaxel solution as a control. Finally, the polymerization was carried out at 37 °C and recorded at 340 nm each 10 s for 70 min using Cytation™ 5 multi-mode readers.

[10] = tested on: A549, PC-3 and HepG2 cancer cell lines; test: MTT antiproliferative assay, three cancer lines together; assay type: cell-based; settings: Homo sapiens; range over A549, PC-3 and HepG2; read-out: IC50 values against three cancer lines
Text: as §1, with “laboratory. Cells were maintained in RPMI 1640 or DMEM complete medium.” for “laboratory.”
as §2, with “Switzerland). Curcumin, gefitinib, and colchicine were used as positive controls.” for “Switzerland).”

[11] = tested on: HepG2 cells; test: Cell cycle analysis by flow cytometry; assay type: cell-based, human; settings: HepG2, 24 μM, 24 h (0 μM: 17.68%)
Method: The cells in the 6-well plates were carefully collected 24 h after dosing. After the cells were washed with pre-cooled PBS, the pre-cooled 70% ethanol solution was added for fixation (4 °C overnight). After that, the cells were washed with PBS, and incubated with 1 mg/mL RNase A for 30 min at 37 °C). Then, […] PI staining solution was added and incubated in the dark for 30 min at 4 °C. Finally, the cell arrest was analyzed by the FACSCalibur™ flow cytometer (Becton Dickinson Immunocytometry Systems, San Jose, CA, USA) as previously described.

[12] = Homo sapiens, HepG2, 48 h, MTT assay after 48 h
[13] = A549, 6 μM, 12 h (control 12.5%)
[14] = A549, 6 μM, 24 h (control 24.4%)

| Compound | IC50 ([1]; Homo sapiens, A549) | IC50 [2, 12] | IC50 ([3]; Homo sapiens) | further results |
| --- | --- | --- | --- | --- |
| CCOc1ccc(/C=C/C(=O)NNC(=O)/C=C/c2ccccc2)cc1 [I13] | 15 ± 4.9 µM | 15.4 ± 0.93 µM | 22.5 ± 2.64 µM | – |
| Cc1ccc(/C=C/C(=O)NNC(=O)/C=C/c2ccccc2)cc1 [I10] | 19.5 ± 4.95 µM | 23.6 ± 2.67 µM | 70.3 ± 9.88 µM | – |
| O=C(/C=C/c1ccccc1)NNC(=O)/C=C/c1ccc([N+](=O)[O-])cc1 [I7] | 4.17 ± 0.93 µM | 7.63 ± 1.75 µM | 8.79 ± 3.19 µM | IC50 [4]: 21 ± 1.75 µM |
| COc1cc(/C=C/C(=O)NNC(=O)/C=C/c2ccccc2)ccc1O [I15] | 35.8 ± 0.59 µM | 31.1 ± 7.66 µM | > 300 µM | – |
| O=C(/C=C/c1ccccc1)NNC(=O)/C=C/c1cccs1 [I18] | 13.8 ± 0.29 µM | 21.1 ± 3.76 µM | 15.9 ± 1.14 µM | – |
| Cc1ncsc1/C=C/C(=O)NNC(=O)/C=C/c1ccccc1 [I19] | 26.6 ± 5.08 µM | 89.3 ± 8.89 µM | 96.4 ± 8.36 µM | – |
| CN(C)c1ccc(/C=C/C(=O)NNC(=O)/C=C/c2ccccc2)cc1 [I14] | 12.8 ± 0.6 µM | 3.42 ± 0.49 µM | 7.81 ± 1.69 µM | IC50 [4]: 7 ± 0.3 µM |
| O=C(/C=C/c1ccccc1)NNC(=O)/C=C/c1ccc(F)cc1 [I9] | 24.9 ± 1.54 µM | 7.63 µM | 4.68 ± 0.69 µM | IC50 ([2]; MTT assay after 48 h): 4.75 ± 0.36 µM |
| O=C(/C=C/c1ccccc1)NNC(=O)/C=C/C1CC=CCC1 (stereo not drawn) [I21] | 8.27 ± 0.8 µM | 20.4 ± 0.86 µM | 21.6 ± 0.89 µM | – |
| O=C(/C=C/c1ccccc1)NNC(=O)/C=C/c1ccc(Cl)cc1 [I8] | 9.57 ± 1.92 µM | 6.98 ± 1.3 µM | 63.2 ± 3.86 µM | – |
| COc1cc(/C=C/C(=O)CC(=O)/C=C/c2ccc(O)c(OC)c2)ccc1O [Curcumin, reference compound] | 69.6 ± 1.18 µM | – | 73.4 ± 4.99 µM | IC50 ([2]; Homo sapiens, HepG2, 48 h): 40.2 ± 1.74 µM; IC50 [4]: > 300 µM |
| O=C(/C=C/c1ccccc1)NNC(=O)/C=C/C1CCCCC1 [I20] | 16.3 ± 3.25 µM | > 300 µM | 21.8 ± 3.15 µM | – |
| CC(C)c1ccc(/C=C/C(=O)NNC(=O)/C=C/c2ccccc2)cc1 [I11] | 43 ± 7.3 µM | 18.6 ± 3.9 µM | 19.2 ± 6.57 µM | – |
| COc1cccc(/C=C/C(=O)NNC(=O)/C=C/c2cccc(OC)c2)c1 [I26] | 11 ± 1.72 µM | 14.5 ± 2.56 µM | 21 ± 2.32 µM | – |
| O=C(/C=C/c1ccccc1)NNC(=O)/C=C/c1cccc([N+](=O)[O-])c1 [I4] | 6.05 ± 0.08 µM | 6.32 ± 1 µM | 15.8 ± 1.67 µM | – |
| O=C(/C=C/c1ccccc1)NNC(=O)/C=C/c1cccnc1 [I22] | 60.2 ± 2.37 µM | 43.3 ± 1.1 µM | 159 ± 5.88 µM | – |
| COc1ccc(/C=C/C(=O)NNC(=O)/C=C/c2ccc([N+](=O)[O-])cc2)cc1 [I24, (E)-3-(4-methoxyphenyl)-N'-((E)-3-(4-nitrophenyl)acryloyl)acrylohydrazide] | 5.17 ± 0.41 µM | 8.08 ± 2.25 µM | 15.7 ± 2.98 µM | – |
| (E)-3-(3-methoxyphenyl)-N'-((E)-3-(3-methoxyphenyl)acryloyl)acrylohydrazide [I25] | – | – | – | IC50 [1]: 144 ± 8.95 µM; IC50 ([2]; MTT assay after 48 h): 80 ± 4.04 µM; IC50 [3]: 142 ± 6.79 µM |
| O=C(/C=C/c1ccccc1)NNC(=O)/C=C/c1ccco1 [I17] | 13 ± 2.4 µM | 34.5 ± 0.28 µM | 36 ± 0.7 µM | – |
| O=C(/C=C/c1ccccc1)NNC(=O)/C=C/c1cccc(O)c1 [I5] | 5.09 ± 0.08 µM | 8.69 ± 1.04 µM | 6.68 ± 0.96 µM | IC50 [4]: 50 ± 4.4 µM |
| COc1cc2ncnc(Nc3ccc(F)c(Cl)c3)c2cc1OCCCN1CCOCC1 [Gefitinib, reference compound] | – | – | – | Cell relative migration (migration rate) [5, 13]: 3.98%; Cell relative migration (migration rate) [5, 14]: 7.97% |
| COc1ccc(/C=C/C(=O)NNC(=O)/C=C/c2ccccc2)cc1 [I12] | 10.9 ± 0.25 µM | 21.1 ± 4.07 µM | 39.4 ± 3.54 µM | – |
| O=C(/C=C/c1ccccc1)NNC(=O)/C=C/c1ccccc1Cl [I3] | 6.48 ± 0.41 µM | 9.53 ± 1.74 µM | 7.38 ± 0.24 µM | – |
| O=C(/C=C/c1ccccc1)NNC(=O)/C=C/C1CC1 [I16] | 16.4 ± 0.98 µM | 78.5 ± 1.39 µM | 80.5 ± 5.43 µM | – |
| O=C(/C=C/c1ccccc1)NNC(=O)/C=C/c1ccccc1[N+](=O)[O-] [I2] | 7.55 ± 1.22 µM | 9.33 ± 0.95 µM | 8.08 ± 2.24 µM | – |
| O=C(/C=C/c1ccccc1)NNC(=O)/C=C/c1ccccc1 [I1] | 26.7 ± 0.43 µM | 8.17 ± 0.46 µM | 5.95 ± 1.52 µM | – |
| COc1cccc(/C=C/C(=O)NNC(=O)/C=C/c2ccc([N+](=O)[O-])cc2)c1 [I23] | 5.99 ± 1.07 µM | 3.36 ± 0.8 µM | 4.17 ± 0.57 µM | Apoptosis effect (Hoechst 33258 staining) [6]: a strong apoptotic phenomenon happened; Effect on tubulin polymerization seen by TEM [7]: more large nonlinear disorganized aggregations; Effect on cellular microtubule network (immunofluorescence) [8]: agminated microtubule network and wrinkled nucleus were observed; Cell relative migration (migration rate) ([5]; A549, 3 μM, 12 h (control 12.5%)): 8.93%; Cell relative migration (migration rate) ([5]; A549, 3 μM, 24 h (control 24.4%)): 18.7%; Cell relative migration (migration rate) [5, 13]: 6.07%; Cell relative migration (migration rate) [5, 14]: 13.2%; Effect on tubulin polymerization [9]: could stabilize tubulin assembly and promote protofilament assembly in a dosage-dependent manner; IC50 [10]: 3.36 to 5.99 µM; Percentage of cell, G2/M [11]: 20.56%; IC50 [4]: 6.99 ± 1.6 µM |
| COc1cccc(/C=C/C(=O)NNC(=O)/C=C/c2ccccc2)c1 [I6] | 41 ± 4.47 µM | 46.8 ± 0.14 µM | 160 ± 10.9 µM | – |

— article PMC9604255, “Discovery of Simple Diacylhydrazine-Functionalized Cinnamic Acid Derivatives as Potential Microtubule Stabilizers” (International Journal of Molecular Sciences, 2022)
